Assay results published in patent US9717727B2, “Methods of treating and preventing leukemia and other cancers of the blood and bone” (The Trustees of Columbia University in the City of New York, priority 2011, dated 2017).

Legend:
[1] = test system: EL4-GFP-Luc lymphoma/lymphoblastic cells; experiment: EL4-GFP-Luc lymphoblastic leukemia mouse model, long-term oral LP-533401 treatment (Example 9); format: in vivo, mice
Procedure: 8- to 10-week-old immunocompetent male mice were inoculated with tumor cells by tail vein injection. The EL4 cell line was established from a lymphoma-induced tumor in a C57BL mouse by 9,10-dimethyl-1,2-benzanthacene. An EL4 cell line transduced with green fluorescence protein and luciferase, EL4-GFP-Luc, was injected via the lateral tail vein of the B6(Cg)-Tyrc-2J mice (500,000 cells per mouse). The EL4-GFP-Luc fusion gene was used to allow cell trafficking and tumor progression to be assessed by an in vivo imaging system.
Leukemia engraftment and progression was monitored using the Xenogen IVIS-200 System (IVIS® imaging system, Xenogen Corporation), an in vivo imaging technology platform that allows non-invasive visualization, and tracking of cellular and genetic activity within a living organism. The system consists of a CCD camera mounted on a light-tight specimen chamber, a camera controller, a cryogenic cooler, a fluorescence light source and a computer system for data acquisition and analysis. The system is capable of imaging bioilluminescence and fluorescence in living animals.
In this study, since luminescence was being detected, luciferin as a substrate of luciferase was administered to the mice. The mice were monitored using the in vivo imaging system twice per week. Mice were anaesthetized using isoflurane, and then were injected intraperitoneally with luciferin (0.15 mg per g body weight) 10 minutes before the detection point. Mice were imaged using the in vivo system, setting the exposure time to 1 minute. Bioilluminescence intensity was recorded and counted.
Blood was collected by cardiac puncture in EDTA (CBCs and blood smears) or non-EDTA (serum) coated tubes. For serum preparation, blood was kept at room temperature for 15 minutes and centrifuged at 15,700 g for 10 min at 4° C. Serum osteocalcin was measured using the Osteocalcin IRMA kit (Immutopics).
Time-to-event analysis was used to assess two endpoints of interest, death and paralysis. The day which mice were inoculated with tumor cells was considered Day 1. Animals were followed up to 62 days. […] Kaplan-Meier curves were generated to illustrate time to death and paralysis, stratified by group status. Statistical significance of the between-group difference in the median time-to-endpoint was assessed by the log-rank test. Statistical analyses were performed using the EXCEL-XLSTAT and SAS softwares0. A P value less than 0.05 was considered statistically significant.
Mice injected with the EL-4 cell line, EL4-GFP-Luc, were used as described in Example 2. The imaging system describe in Example 2 was used.
Mice were treated orally with LP-533401 (25 or 200 mg per kg of body weight per day) or vehicle. Treatments started 15 days before malignant cell injections in all sets of experiments, and continued for the indicated periods of time. LP-533401 was dissolved in polyethylene glycol (PEG) and 5% dextrose or 2.5% glucose (Sigma), and given daily by oral gavage. Mice treated with vehicle were administered, in the same way as LP533401, a solution of PEG and 5% dextrose or 2.5% glucose, daily, by oral gavage.
The mice were divided into four groups of mice: • Mice with no leukemia treated with a vehicle, i.e., non-leukemic-vehicle-treated (“WT”); • Mice with no leukemia treated with LP533401, i.e., non-leukemic-LP-533401-treated (“NL-LP”); • Mice with leukemia treated with a vehicle, i.e., leukemic-vehicle-treated (“Leuk-veh”); and • Mice with leukemia treated with LP-533401, leukemic-LP533410-treated (“Leuk-LP”).
Treatment of the non-leukemic mice with the vehicle or LP-533401 lasted a total of 35 days and treatment of the leukemic animals with a vehicle or LP-533401 continued until the day mice were sacrificed, which occurred at different time points, depending upon the presence of signs of illness. […]

serum serotonin = experiment: Serum serotonin levels, WEHI/3B study (Example 12); format: in vivo; conditions: non-leukemic mice treated with LP-533401 (NL-LP); BALB/cJ
Procedure: For measurements of serum serotonin levels, mice were briefly exposed to Isoflurane (Baxter) for 30 seconds and blood was collected by cardiac puncture. Similar volumes of blood were collected from different animals for consistency in the clotting times. Serum collection from all mice was done between 9:00 am and 12:00 pm. Blood was allowed to clot on ice for 5 minutes before centrifugation at maximum speed at 4° C. for 10 minutes. The serum supernatant was removed, snap frozen and stored at −80° C. for further analysis. Serum serotonin levels were quantified by ELISA (Serotonin kit, Fitzgerald) according to manufacturer's instructions. […]
All mice were sacrificed after 2 weeks for the following assessments: • Serum serotonin levels as measured in Example 9; • Body weight as described in Example 2 • Spleen weight as described in Example 2; • Histological analysis of the femur, spleen and liver as described in Example 2; • Trabecular Bone Volume (Bv/TV) as described in Example 3; • and • Gene Expression analysis by PCR as described in Example 3. […]

EL4 cells = experiment: Injection of EL4 cells pre-treated with LP-533401 or serotonin into syngeneic mice (Example 13); format: in vivo; conditions: cells treated before injection; LP-533401 0.1 to 1-fold serum concentration, serotonin 25 to 100 μM
Procedure: EL4 cells and WEH-3B cells, as described in Example 2, were treated with either LP-533401 or serotonin LP-533401 treatments were performed at 0.1 to 1-fold the amount equivalent to the LP-533401 serum concentration in mice treated with this compound. Serotonin was given at concentrations ranging from 25 to 100 μM, doses at which it affects the proliferation of cells expressing serotonin receptors (Kode et al. (2012); Yadav et al. (2008) Serafeim et al. (2003)).
EL4 cells treated with LP-533401 or serotonin were then injected into syngeneic mice as described in Example 2 to monitor leukemia engraftment, as commonly described for evaluating potential direct effects of compounds on leukemia cells (Moellering et al. (2009)).

[2] = among ten leukemic mice treated
[3] = leukemic mice (EL4), peripheral blood

Nc1nc(OC(c2ccc(-c3cccc(F)c3)cc2)C(F)(F)F)cc(-c2ccc(C[C@H](N)C(=O)O)cc2)n1 (stereo partly drawn) [LP-533401]
number of treated leukemic mice that cleared their leukemia [1, 2]: 2 | number of treated leukemic mice that never developed leukemia [1, 2]: 2 | number of treated leukemic mice that developed leukemia at a late stage and then recovered ([1]; among ten leukemic mice treated, day 28): 1 | animals that developed hind-limb paralysis ([1]; leukemic mice (EL4)): 38% | reticulocyte numbers ([1]; leukemic mice (EL4)): prevented leukemia induced suppression of reticulocyte numbers | tumor burden by bioluminescence imaging / luciferase intensity ([1]; leukemic mice (EL4)): decreased tumor burden | anemia (red blood cells, hemoglobin, hematocrit) [1, 3]: ameliorated anemia | leukemia-associated increase in WBCs [1, 3]: diminished | neutrophils, monocytes and lymphocytes [1, 3]: restored to normal numbers | overall survival ([1]; mice with leukemia (EL4)): significantly longer overall survival | decrease in serum serotonin levels compared to wild-type mice (serum serotonin): 50% | leukemia outcome (burden and lethality) after injection of pre-treated EL4 cells (EL4 cells): neither of the two treatments altered leukemia outcome
